Assay [1] concerns MCF7. The assay is described as follows: cells. The assay is classed as functional, cell-based. As to conditions: Homo sapiens, MCF7, 24 h.
Description: Cytotoxic activity against human MCF7 cells after 24 hrs by MTT assay
The subject of assay [2] is MCF7. The assay is described as follows: Cytotoxic activity against human MCF7 cells assessed as reduction in cell viability at 4 uM after 24 hrs by MTT assay relative to control. The format is functional.
In assay [3] the test system is MCF7. In words: Cytotoxic activity against human MCF7 cells assessed as reduction in cell viability at 35 uM after 24 hrs by MTT assay relative to control. The format is functional. In general terms: Tetrazolium dyes change colour on reduction, which living cells bring about.
Assay [4] has as its system MCF7. The assay is described as follows: Cytotoxic activity against human MCF7 cells assessed as reduction in cell viability at 70 uM after 24 hrs by MTT assay relative to control. The assay is classed as functional.
In assay [5] the target is T1, Histone deacetylase (Homo sapiens) (UniProt Q13547+O15379+Q9UBN7+Q92769+Q9UQL6+Q8WUI4+Q9BY41+Q96DB2+P56524+Q9UKV0+Q969S8). The assay is described as follows: Inhibition of HDAC in human MCF7 cell nuclear extract using acetylated lysine as substrate at 17 uM after 1 hr by colorimetric analysis relative to control. The format is protein assay.
Assay [6] addresses T2, Lysine-specific histone demethylase 1A/REST corepressor (Homo sapiens, UniProt O60341+Q9P2K3).
Description: (§1) Inhibition of human recombinant LSD1/CoREST3 expressed in Escherichia coli using monomethylatedH3meK4 peptide as substrate preincubated for 15 mins followed by substrate addition measured after 12 mins by fluorescence based assay
In assay [7] the target is T3, HDAC1/REST corepressor 3 (Homo sapiens, UniProt Q13547+Q9P2K3).
T3 sequence (Q13547 whole entry, other chains not shown): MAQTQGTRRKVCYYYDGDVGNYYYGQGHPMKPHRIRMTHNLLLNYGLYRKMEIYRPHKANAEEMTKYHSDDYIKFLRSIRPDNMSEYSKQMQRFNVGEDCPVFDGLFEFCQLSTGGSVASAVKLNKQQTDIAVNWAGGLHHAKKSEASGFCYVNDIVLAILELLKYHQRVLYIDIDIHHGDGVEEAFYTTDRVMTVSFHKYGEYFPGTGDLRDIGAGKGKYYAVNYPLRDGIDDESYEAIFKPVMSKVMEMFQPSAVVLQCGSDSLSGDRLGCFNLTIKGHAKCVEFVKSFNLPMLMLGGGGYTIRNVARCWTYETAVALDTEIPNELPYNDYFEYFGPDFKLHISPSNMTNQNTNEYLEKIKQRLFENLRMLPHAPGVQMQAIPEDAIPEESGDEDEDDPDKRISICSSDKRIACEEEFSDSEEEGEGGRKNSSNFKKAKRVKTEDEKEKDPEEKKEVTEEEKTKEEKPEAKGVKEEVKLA
Description: (§2) Inhibition of HDAC1/CoREST3 in HEK293 whole cell extract using fluorescent acetylated histone peptide as substrate after 60 mins by fluorescence based assay
Assay [8] has as its target T1, Histone deacetylase (Homo sapiens). In words: Inhibition of HDAC in human MCF7 cell nuclear extract using acetylated lysine as substrate at 70 uM after 1 hr by colorimetric analysis relative to control. The format is protein assay.
In assay [9] the target is T2, Lysine-specific histone demethylase 1A/REST corepressor. The source holds these as a separate data set.
Description: as §1
Assay [10] addresses T3, HDAC1/REST corepressor 3. This is another data set of the same source.
Description: as §2
The test system of assay [11] is MCF7. The assay is described as follows: Cytotoxic activity against human MCF7 cells assessed as reduction in cell viability at 16 uM after 24 hrs by MTT assay relative to control. The assay is classed as functional.

For the molecule `Cl.Cl.Cl.N[C@@H]1C[C@H]1c1ccc(NC(=O)CCC(=O)NCCCNCCCCNCCCNC(=O)c2ccc(NC(=O)CCCCCCC(=O)NO)cc2)cc1`, the values for the IC50 (in the assay on MCF7 [1]; in assay [6]) were 39.6 µM and 3.85 µM, respectively. The figures for the Activity in the assay on MCF7 [2], in the assay with MCF7 [3] and with MCF7 [4] were 16.3%, 52.7% and 68.6%, respectively. The inhibition (usually how much of the control response was suppressed) in [5] is 50.2%. Moreover, the affinity at HDAC1/REST corepressor 3 [7] corresponds to a Ki of 0.0425 µM.
On to `Cl.Cl.N[C@@H]1C[C@H]1c1ccc(NC(=O)CCC(=O)NCCCNCCCNC(=O)c2ccc(NC(=O)CCCCCCC(=O)NO)cc2)cc1`, for which the half-inhibitory concentration (IC50) – broadly, the concentration at which inhibition is half-maximal – in the assay on MCF7 [1] was determined as 60.2 µM; in [6] it was 2.4 µM. In addition, the Activity in the assay on MCF7 [4] is on record as 52%. In [8], this molecule yielded an inhibition of 35.8%. Besides, on HDAC1/REST corepressor 3 [7], the Ki (usually the dissociation constant of the complex between target and ligand, obtained from inhibition or displacement) is 0.0269 µM.
In the case of `Cl.Cl.Cl.N[C@@H]1C[C@H]1c1ccc(NC(=O)CCC(=O)NCCCCCCNCCCCCCCCNCCCCCCNC(=O)c2ccc(NC(=O)CCCCCCC(=O)NO)cc2)cc1`, the IC50 entry in [9] is recorded as “Nd(Insoluble)”. In addition, the inhibition constant (Ki) entry on HDAC1/REST corepressor 3 [10] was “Nd(Insoluble)”.
As to `O=C(CCCCCCC(=O)Nc1ccccc1)NO` [VORINOSTAT], the Activity in the assay with MCF7 [2] is 20.8%; with MCF7 [11], 49.3%; in the assay on MCF7 [4], 56.6%.

The values above are taken from ChEMBL document CHEMBL4219105, “Novel polyamine-based Histone deacetylases-Lysine demethylase 1 dual binding inhibitors” (Bioorg Med Chem Lett, 2018).
